According to US20050203119A1, “Dihydropyridine compounds for treating or preventing metabolic disorders” (priority 2003, published 2005):

What was measured:
[1] = system: obese diabetic mice (C57BL/6 ob/ob); assay: Glucose reduction in ob/ob mouse model (Example 113); type: in vivo; conditions: 3.5 hours after administration
Method: Genetically mutated obese diabetic mice (C57BL/6 ob/ob) were purchased from the Jackson Laboratory (Bar Harbor, Me.). Eight weeks old male animals were employed in this study. After acclimation, mice were randomized for equivalent mean blood glucose on day 0 with eight mice each group, and received either vehicle or Compound 1 in 0.5% methylcellulose (ps400) by oral gavage once daily for 8 consecutive days. Plasma glucose was monitored 3.5 hours after administration of test compound on day 3 and 8.

Male SD rats = conditions: rat, in vivo
Method: Male SD rats weighing 350-420 g were anesthetized with 2-3% isoflurane. The femoral artery and vein were catheterized and connected to a mean arterial blood pressure (MAP) and heart rate (HR) monitor and a continuous intravenous infusion pump. Under anesthesia, MAP and HR were recorded 10-20 minutes prior to and during the continuous intravenous infusion of test compounds for 60-70 minutes. The infusion rate, 0.14-0.16 ml/kg/minute, was determined on the basis of vehicle tolerance. The infusion doses, 1.0-1.25 mg/kg/minute, were selected, depending upon the solubility of the compound and effects on MAP and HR of the positive control compounds at the lethal dose. The maximal effective dose or lethal dose of test compounds were determined accordingly.

[2] = system: C57BLKS/J db/db male mice; assay: Glucose, insulin and triglyceride reduction in db/db mouse model, 10 days (Example 115); type: in vivo; conditions: orally once daily for 10 days
Method: Compound 1 was evaluated for its effect on plasma glucose, triglyceride and insulin in C57BLKS/J db/db male mice.
Compound 1 or vehicle was administered orally once daily for 10 consecutive days. Animals were divided into either vehicle or treatment groups (n=8 per group), and blood glucose, serum triglyceride and insulin were tested at the end of assay by Ani Lytic Inc (Baltimore, Md.).

[3] = system: C57BLKS/J db/db male mice; assay: Glucose reduction, Compound 1 in combination with rosiglitazone, db/db mice (Example 116, FIG. 2); type: in vivo, mouse; conditions: Compound 1 alone, 50 mg/kg
[4] = system: NIDDM male mice (C57BLKS/J-m+/+Lepr db); assay: Glucose reduction in db/db mouse model, oral once daily for 7 days (Example 111); type: in vivo; conditions: for Serum Glucose % Pre-Treatment Baseline: 90 min post-dosing
Method: Non-insulin dependent diabetic mellitus (NIDDM) male mice (C57BLKS/J-m+/+Lepr db) weighing 60±5 g (12 weeks of age) provided by the Institute for Animal Reproduction (IAR, Japan) were used. […] The animals were housed in Individually Ventilated Cages Racks (IVC Racks, 36 Mini Isolator systems) throughout the experiment. Each APEC cage was autoclave sterilized and contained 4 mice and then maintained in a hygienic environment under controlled temperature (22-24° C.) and humidity (60-70%) with 12-hour light/dark cycles. The animals were given sterilized lab Chow and sterilized distilled water ad libitum.
Sterilized distilled water, ELISA Insulin Assay Kit (SPI bio, France), glucose (Merck), Glucose-HA assay kit (Wako, Japan), methylcellulose (Sigma), and troglitazone (BioMOL).
Compound 1 was suspended in 0.5% methylcellulose. Compound 1 at 100, 50 and 30 mg/kg as well as vehicle were administered to NIDDM male mice weighing 60±5 g (11-12 weeks of age), orally once daily for 7 consecutive days starting immediately after the first blood sampling (pre-treatment on day 1). Blood sampling was repeated at 90 minutes post-dosing on day 3 and day 7. The dosing volume was 10 ml/kg. Serum glucose level in the pre- and post-treatment periods were determined by enzymatic (Mutaratase-GOD) method. Post-treatment serum glucose value expressed in percentage of respective pre-treatment values were calculated and unpaired Student's t test was then applied for comparison between compound treated and vehicle control groups. Differences were considered significant at P<0.05. In addition, the liver weight and body weight were recorded to determine the ratio of liver to body weight.

Structure (SMILES): CCOC(=O)C1=C(COCCN)NC2=C(C(=O)CC(C)(C)C2)C1c1ccccc1Cl (centres unmarked) [Compound 1, 2-(2-amino-ethoxymethyl)-4-(2-chloro-phenyl)-7,7-dimethyl-5-oxo-1,4,5,6,7,8-Hexahydro-quinoline-3-carboxylic acid ethyl ester]
- percent normalized reduction of serum glucose vs vehicle ([1]; day 3, 50 mg/kg oral gavage once daily): 30%
- percent normalized reduction of serum glucose vs vehicle ([1]; day 8, 50 mg/kg oral gavage once daily): 22.3%
- Lethal Dose (Male SD rats): >70 mg/kg
- % Reduction (relative to vehicle), Glucose [2]: 14%
- % Reduction (relative to vehicle), Insulin [2]: 19%
- % Reduction (relative to vehicle), Triglyceride [2]: 17%
- Glucose ([2]; end of assay): 327.50 mg/dL
- Insulin ([2]; end of assay): 11.32 ng/mL
- Triglyceride ([2]; end of assay): 336.13 mg/dL
- blood glucose level, monotherapy [3]: reduced glucose levels
- Serum Glucose % Pre-Treatment Baseline ([4]; Day 3, 30 mg/kg orally once daily): 96.7 ± 2.2 %
- Serum Glucose % Pre-Treatment Baseline ([4]; Day 3, 50 mg/kg orally once daily): 86.5 ± 3.5 %
- Serum Glucose % Pre-Treatment Baseline ([4]; Day 3, 100 mg/kg orally once daily): 85.6 ± 2.4 %
- Serum Glucose % Pre-Treatment Baseline ([4]; Day 7, 30 mg/kg orally once daily): 91.6 ± 3.7%
- Serum Glucose % Pre-Treatment Baseline ([4]; Day 7, 50 mg/kg orally once daily): 82.9 ± 4.4 %
- Serum Glucose % Pre-Treatment Baseline ([4]; Day 7, 100 mg/kg orally once daily): 80.9 ± 3.3 %
- liver weight relative to body weight ([4]; any treatment group (30, 50, 100 mg/kg, 7 days) vs vehicle control): No significant difference
